The text below walks through data of article PMC7380166, “How to Study the Metabolism of New Psychoactive Substances for the Purpose of Toxicological Screenings—A Follow-Up Study Comparing Pooled Human Liver S9, HepaRG Cells, and Zebrafish Larvae” (Frontiers in Chemistry, 2020).

Data set [1] addresses T1, CYP3A4 (Homo sapiens, UniProt P08684).
T1 construct: purchased Corning; host or cells: baculovirus-transfected insect cell microsomes (Supersomes)
The data set can be described thus: Monooxygenases activity screening, CYP3A4. The class given is in vitro ADME. Set-up: key: +, detected; –: −, not detected. The settings on record: 25 μM 4F-MDMB-BINACA, 50 pmol/ml enzyme, 30 min, 37°C, duplicate. The method, then:
(§1) According to an established protocol (Wagmann et al., [2016]), the final volume per reaction tube was 50 μl with a final 4F-MDMB-BINACA concentration of 25 μM and enzyme concentrations of 50 pmol/ml for CYP1A2, CYP2A6, CYP2B6, CYP2C8, CYP2C9, CYP2C19, CYP2D6, CYP2E1, CYP3A4, and CYP3A5, respectively, or 0.25 mg protein/ml for FMO3. Furthermore, the reaction mixture contained 90 mM phosphate buffer (pH 7.4), superoxide dismutase (200 U/ml), isocitrate (5 mM), MgCl2 (5 mM), isocitrate dehydrogenase (0.5 U/ml), and NADP^+ (1.2 mM). The phosphate buffer was replaced with Tris buffer (90 mM) for incubations with CYP2A6 and CYP2C9 according to the manufacturer's recommendation. All incubations were performed at 37°C for 30 min and terminated by adding 50 μl of ice-cold acetonitrile. Afterwards, the mixtures were centrifuged at 18,407 × g for 5 min, 70 μl of the supernatants was transferred into autosampler vials, and 1 μl was injected onto the LC-HRMS/MS system. Positive control incubations were performed with pHLM (1 mg microsomal protein/ml), and negative controls without enzyme were prepared to identify non-metabolically formed compounds. All incubations were done in duplicate.

Data set [2] has as its target T2, FMO3 (Homo sapiens, UniProt P31513).
T2 construct: purchased Corning; host or cells: baculovirus-transfected insect cell microsomes (Supersomes)
T2 sequence (P31513 1-532): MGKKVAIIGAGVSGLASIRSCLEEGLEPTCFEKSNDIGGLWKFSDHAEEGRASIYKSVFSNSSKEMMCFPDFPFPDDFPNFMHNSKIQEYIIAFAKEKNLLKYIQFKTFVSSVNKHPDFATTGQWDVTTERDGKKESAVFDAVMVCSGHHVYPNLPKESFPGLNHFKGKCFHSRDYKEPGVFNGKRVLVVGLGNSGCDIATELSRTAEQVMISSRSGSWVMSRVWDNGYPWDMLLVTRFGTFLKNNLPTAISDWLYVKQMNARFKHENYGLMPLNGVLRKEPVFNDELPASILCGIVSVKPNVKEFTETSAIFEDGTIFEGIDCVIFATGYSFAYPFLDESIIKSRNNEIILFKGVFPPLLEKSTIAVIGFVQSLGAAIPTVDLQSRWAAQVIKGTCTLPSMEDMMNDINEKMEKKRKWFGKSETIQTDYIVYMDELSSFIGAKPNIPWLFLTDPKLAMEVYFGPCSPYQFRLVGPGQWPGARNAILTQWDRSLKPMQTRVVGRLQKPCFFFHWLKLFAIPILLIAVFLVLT
The data set can be described thus: Monooxygenases activity screening, FMO3. The settings on record: 25 μM 4F-MDMB-BINACA, 0.25 mg protein/ml, 30 min, 37°C, duplicate. The arrangement: key: +, detected; –: −, not detected. Format: in vitro ADME. The method, then: as §1

T1 sequence (P08684 whole entry): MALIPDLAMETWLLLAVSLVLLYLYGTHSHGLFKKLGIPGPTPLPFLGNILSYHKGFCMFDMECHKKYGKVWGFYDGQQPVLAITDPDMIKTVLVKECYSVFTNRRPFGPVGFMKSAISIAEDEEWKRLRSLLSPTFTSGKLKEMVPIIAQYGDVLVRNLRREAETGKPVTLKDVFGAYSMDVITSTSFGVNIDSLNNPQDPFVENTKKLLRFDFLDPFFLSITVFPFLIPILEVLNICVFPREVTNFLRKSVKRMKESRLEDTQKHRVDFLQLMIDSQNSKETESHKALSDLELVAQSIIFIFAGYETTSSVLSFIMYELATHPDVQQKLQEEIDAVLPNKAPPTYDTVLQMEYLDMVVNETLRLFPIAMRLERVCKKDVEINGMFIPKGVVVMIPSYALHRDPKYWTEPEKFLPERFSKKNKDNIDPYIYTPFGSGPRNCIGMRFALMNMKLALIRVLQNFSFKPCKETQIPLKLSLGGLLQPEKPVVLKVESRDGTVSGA

With `O=C(O)c1nn(CCCCF)c2ccccc12` [MB1], the “Detection of metabolite in incubation with CYP3A4” value (“Detection … with CYP3A4” below) in data set [1] is reported as “–”. The “Detection of metabolite in incubation with FMO3” value (shortened to “Detection … with FMO3”) in data set [2] was “–”.
Consider `COC(=O)[C@@H](NC(=O)c1n[nH]c2ccccc12)C(C)(C)C` [MB4], for which the “Detection … with CYP3A4” value in data set [1] is given as “+”. Further, the “Detection … with FMO3” value in data set [2] was “–”.
On the same counts, the results for `CC(C)(C)C(NC(=O)c1nn(CCCCF)c2ccccc12)C(=O)O` (stereo not shown) [MB8] are “–” and “–”.
The matching figures for `COC(=O)[C@@H](NC(=O)c1nn(CCCCO)c2ccccc12)C(C)(C)C` [MB11]: “–” and “–”.
`COC(=O)[C@@H](NC(=O)c1nn(CCCCF)c2ccccc12)C(C)(C)CO` [MB16]: in data set [1], the “Detection … with CYP3A4” value was “–”. In addition, the “Detection … with FMO3” value in data set [2] is listed as “–”.
